ChEMBL document CHEMBL1201862, “PubChem BioAssay data set” (2004)
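Compound exposure: 48 hours, 5 concentrations, 96-well plates. The concentration for 50% growth inhibition is given as GI50.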 Active and inactive are the calls of the source. Cut-off read from the data, not from the text of the source: active = GI50 up to about 1.1 µM and inactive = higher.

Tests used:
Experiment in all cases: NCI anticancer screen, dose series, 48 h
[1] = tested on: UACC-62
[2] = tested on: NCI-H23
[3] = tested on: TK-10
[4] = tested on: PC-3
[5] = tested on: SF-539
[6] = tested on: T47D
[7] = tested on: HOP-62
[8] = tested on: HCT-116
[9] = tested on: NCI-H226
[10] = tested on: HCT-15
[11] = tested on: SK-MEL-5
[12] = tested on: MDA-MB-231
[13] = tested on: NCI-H522
[14] = tested on: RPMI-8226
[15] = tested on: 786-0
[16] = tested on: SK-MEL-2
[17] = tested on: MDA-MB-435
[18] = tested on: U-251
[19] = tested on: KM12
[20] = tested on: UACC-257

Structure (SMILES)	GI50 [1]	GI50 [2]	GI50 [3]	GI50 [4]	GI50 [5]	GI50 [6]	GI50 [7]	GI50 [8]	GI50 [9]	GI50 [10]	GI50 [11]	GI50 [12]	GI50 [13]	GI50 [14]	GI50 [15]	GI50 [16]	GI50 [17]	GI50 [18]	GI50 [19]	GI50 [20]
COc1ccc(/C=C2\N=C(SC)NC2=O)cc1	70.3 µM (inactive)	67 µM (inactive)	86.1 µM (inactive)	67.1 µM (inactive)	80.7 µM (inactive)	27.8 µM (inactive)	> 100 µM (inactive)	> 100 µM (inactive)	> 100 µM (inactive)	89.7 µM	53.6 µM (inactive)	59.6 µM (inactive)	69 µM (inactive)	61.8 µM (inactive)	> 100 µM (inactive)	> 100 µM (inactive)	91.8 µM (inactive)	90.6 µM (inactive)	54.6 µM (inactive)	–
O=C1c2cc([N+](=O)[O-])ccc2-c2ccc3c4ccc5c6c(ccc(c7ccc1c2c73)c64)C(=O)c1cc([N+](=O)[O-])ccc1-5	> 100 µM (inactive)	> 100 µM (inactive)	> 100 µM (inactive)	> 100 µM (inactive)	–	> 100 µM (inactive)	> 100 µM (inactive)	> 100 µM (inactive)	> 100 µM (inactive)	> 100 µM	> 100 µM (inactive)	> 100 µM (inactive)	> 100 µM (inactive)	> 100 µM (inactive)	> 100 µM (inactive)	> 100 µM (inactive)	> 100 µM (inactive)	> 100 µM (inactive)	> 100 µM (inactive)	> 100 µM (inactive)
NC(=O)c1csc(-c2ccc(CO)o2)n1	> 100 µM (inactive)	> 100 µM (inactive)	> 100 µM (inactive)	> 100 µM (inactive)	> 100 µM (inactive)	> 100 µM (inactive)	–	> 100 µM (inactive)	> 100 µM (inactive)	> 100 µM	> 100 µM (inactive)	> 100 µM (inactive)	> 100 µM (inactive)	> 100 µM (inactive)	> 100 µM (inactive)	> 100 µM (inactive)	> 100 µM (inactive)	> 100 µM (inactive)	> 100 µM (inactive)	> 100 µM (inactive)
C/C(=N\Nc1nc2ccccc2s1)c1ccc2ccccc2n1	> 100 µM (inactive)	> 100 µM (inactive)	88.7 µM (inactive)	> 100 µM (inactive)	58.7 µM (inactive)	5.36 µM (inactive)	> 100 µM (inactive)	> 100 µM (inactive)	–	> 100 µM	30.2 µM (inactive)	46 µM (inactive)	32.3 µM (inactive)	18.5 µM (inactive)	> 100 µM (inactive)	58.5 µM (inactive)	> 100 µM (inactive)	> 100 µM (inactive)	59.2 µM (inactive)	> 100 µM (inactive)
CCOc1ncn(-c2ccc(NC(=S)NC34CC5CC(CC(C5)C3)C4)cc2)n1	38 µM (inactive)	> 100 µM (inactive)	59.2 µM (inactive)	> 100 µM (inactive)	> 100 µM (inactive)	> 100 µM (inactive)	35.2 µM (inactive)	68.4 µM (inactive)	–	> 100 µM	58.5 µM (inactive)	76.4 µM (inactive)	99.1 µM (inactive)	> 100 µM (inactive)	13.2 µM (inactive)	–	> 100 µM (inactive)	> 10 µM (inactive)	8.47 µM (inactive)	> 100 µM (inactive)
CCCCCCCC(CC(=O)NC(CO)C(=O)NC(CO)CC(C)C)OC(=O)CC(CCCCCCC)OC(=O)CC(CCCCCCC)OC1OC(C)C(O)C(OC2OC(C)C(O)C(OC(C)=O)C2O)C1O (centres undefined)	12.9 µM (inactive)	14.2 µM (inactive)	15.6 µM (inactive)	7.6 µM (inactive)	12.1 µM (inactive)	12.9 µM (inactive)	12.2 µM (inactive)	13.1 µM (inactive)	17.4 µM (inactive)	–	12.6 µM (inactive)	11.3 µM (inactive)	15 µM (inactive)	–	13.4 µM (inactive)	–	11 µM (inactive)	4.2 µM (inactive)	8.99 µM (inactive)	5.77 µM (inactive)
O=C1c2cccc3cc([N+](=O)[O-])cc(c23)C(=O)N1c1ccc(OCCN2CCCC2)cc1	–	17.6 µM (inactive)	22.4 µM (inactive)	22.2 µM (inactive)	13.3 µM (inactive)	> 100 µM (inactive)	30.5 µM (inactive)	6.79 µM (inactive)	9.35 µM (inactive)	14.2 µM	13.9 µM (inactive)	43.2 µM (inactive)	10.8 µM (inactive)	–	10.6 µM (inactive)	24.5 µM (inactive)	19.4 µM (inactive)	16.1 µM (inactive)	22.2 µM (inactive)	16.8 µM (inactive)
COc1cc2oc(-c3ccc4c(c3)OCO4)c(OC)c(=O)c2c(OC)c1O	54.3 µM (inactive)	> 100 µM (inactive)	56.4 µM (inactive)	68.5 µM (inactive)	> 100 µM (inactive)	31.5 µM (inactive)	57.4 µM (inactive)	61 µM (inactive)	> 100 µM (inactive)	78.7 µM	25.4 µM (inactive)	51.6 µM (inactive)	21.9 µM (inactive)	–	10.9 µM (inactive)	–	70.3 µM (inactive)	38.4 µM (inactive)	> 100 µM (inactive)	> 100 µM (inactive)
O=C(N[C@@H](c1ccccc1)[C@@H](O)C(=O)OCc1ccc([N+](=O)[O-])cc1)c1ccccc1	> 100 µM (inactive)	> 100 µM (inactive)	> 100 µM (inactive)	> 100 µM (inactive)	> 100 µM (inactive)	> 100 µM (inactive)	> 100 µM (inactive)	> 100 µM (inactive)	> 100 µM (inactive)	> 100 µM	75.9 µM (inactive)	> 100 µM (inactive)	> 100 µM (inactive)	–	> 100 µM (inactive)	> 100 µM (inactive)	> 100 µM (inactive)	> 100 µM (inactive)	> 100 µM (inactive)	> 100 µM (inactive)
CC(=O)c1c2c(cc3c1CC1(C3)Cc3cc4c(c(C(=O)O)c3C1)CCCC4)CCCC2.CC(N)c1ccccc1 (centres undefined)	30.7 µM (inactive)	42 µM (inactive)	37.5 µM (inactive)	39.7 µM (inactive)	–	36.6 µM (inactive)	21.6 µM (inactive)	25.1 µM (inactive)	–	33.7 µM	22.9 µM (inactive)	10 µM (inactive)	46.1 µM (inactive)	31.6 µM (inactive)	34.4 µM (inactive)	28.1 µM (inactive)	54.8 µM (inactive)	26.1 µM (inactive)	27 µM (inactive)	30.9 µM (inactive)
Cn1c2ccccc2c2c(=S)c3ccccc3ccc21	> 100 µM (inactive)	> 100 µM (inactive)	> 100 µM (inactive)	59.4 µM (inactive)	–	20.7 µM (inactive)	79.6 µM (inactive)	59 µM (inactive)	50.5 µM (inactive)	> 100 µM	44.6 µM (inactive)	> 100 µM (inactive)	36.8 µM (inactive)	–	> 100 µM (inactive)	–	> 100 µM (inactive)	52.8 µM (inactive)	55.7 µM (inactive)	> 100 µM (inactive)
COc1cc(/C=C/C2=NN(c3cccc(S(=O)(=O)O)c3)C3(C2)SCC(=O)N3c2nc3ccccc3s2)cc(OC)c1OC (centres undefined)	35.1 µM (inactive)	69.3 µM (inactive)	29.9 µM (inactive)	45.9 µM (inactive)	46 µM (inactive)	15 µM (inactive)	–	50.5 µM (inactive)	44.8 µM (inactive)	51.9 µM	74.1 µM (inactive)	43.3 µM (inactive)	18 µM (inactive)	21.3 µM (inactive)	18.4 µM (inactive)	42.1 µM (inactive)	23 µM (inactive)	33 µM (inactive)	38.5 µM (inactive)	95.7 µM (inactive)
CC(=O)O[C@H]1CCC2[C@@H]3CCC4Cc5nc6c(nc5C[C@]4(C)C3CC[C@@]21C)CC1CC[C@@H]2C(CC[C@@]3(C)C2CC[C@@H]3C(C)CCCC(C)C)[C@@]1(C)C6 (some centres undefined)	> 100 µM (inactive)	> 100 µM (inactive)	> 100 µM (inactive)	> 100 µM (inactive)	> 100 µM (inactive)	> 100 µM (inactive)	> 100 µM (inactive)	> 100 µM (inactive)	> 100 µM (inactive)	> 100 µM	> 100 µM (inactive)	> 100 µM (inactive)	–	> 100 µM (inactive)	> 100 µM (inactive)	> 100 µM (inactive)	> 100 µM (inactive)	> 100 µM (inactive)	> 100 µM (inactive)	> 100 µM (inactive)
C(=N\NC1=NCCN1)/c1cccc2cc3ccncc3nc12	3.43 µM (inactive)	11.5 µM (inactive)	10.4 µM (inactive)	3.67 µM (inactive)	5.85 µM (inactive)	2.14 µM (inactive)	6.22 µM (inactive)	1.57 µM (inactive)	8.28 µM (inactive)	3.4 µM	9.51 µM (inactive)	2.15 µM (inactive)	3.33 µM (inactive)	1.93 µM (inactive)	1.95 µM (inactive)	–	2.49 µM (inactive)	1.94 µM (inactive)	5.73 µM (inactive)	9.89 µM (inactive)
C[n+]1c(-c2ccc(/C=N/N=C/c3ccc(-c4cn5ccccc5[n+]4C)cc3)cc2)cn2ccccc21	–	–	> 100 µM (inactive)	> 100 µM (inactive)	> 100 µM (inactive)	> 100 µM (inactive)	> 100 µM (inactive)	> 100 µM (inactive)	–	> 100 µM	> 100 µM (inactive)	> 100 µM (inactive)	> 100 µM (inactive)	> 100 µM (inactive)	> 100 µM (inactive)	–	> 100 µM (inactive)	> 100 µM (inactive)	> 100 µM (inactive)	> 100 µM (inactive)
